Values after ≈ are worked out from the molar mass of the structure shown. Where two headings read alike, the source gives them in different places.
What was measured:
[1] = system: Plasmodium falciparum NF54 strain; test: In vitro antiplasmodial assay, P. falciparum NF54 strain; format: cell-based; conditions: for IC50: Plasmodium falciparum; for SI Pf: ratio of cytotoxic (L6) over antiprotozoal IC50, Pf NF54 strain
Method: (§1) All fractions were analyzed by UHPLC/+ESI QTOF MSMS and representative samples chosen for re-evaluation of their antiprotozoal activity. At this stage, each of the chosen fractions was tested for percent growth inhibitory activity at two concentrations (see Table 2).
(§2) The assays and the IC50 determinations were performed essentially as described previously.

[2] = system: K1 strain of Pf; parameters: method as in PMID 15234750; conditions: cited from earlier work
[3] = system: T. cruzi; test: In vitro antiprotozoal assay against T. cruzi (Tcr); format: cell-based; conditions: Trypanosoma cruzi
Method: as §1, §2

[4] = system: rat skeletal myoblasts (L6 cell line); test: Cytotoxicity against rat skeletal myoblasts (L6 cell line); format: cell-based
Method: as §2

[5] = system: Trypanosoma brucei rhodesiense; test: In vitro antiprotozoal assay against T. brucei rhodesiense (Tbr); format: cell-based; conditions: for SI Tbr: ratio of cytotoxic (L6) over antiprotozoal IC50
Method: as §1, §2

[6] = system: Leishmania donovani; test: In vitro antiprotozoal assay against Leishmania donovani (Ldo); format: cell-based
Method: as §1, §2

[7] = system: Plasmodium falciparum K1 strain; test: In vitro antiplasmodial assay, P. falciparum K1 strain; format: cell-based; conditions: K1, read-out: IC50 Pf (value in brackets)
Method: Tests for antiprotozoal activities were carried out using established standard protocols at the Swiss Tropical and Public Health Institute (Swiss TPH, Basel, Switzerland). The assays and the IC50 determinations were performed essentially as described previously.

[8] = system: K1 strain of Pf; parameters: method as in PMID 2236290; conditions: cited from earlier work
[9] = NF54, NF54 strain, pure compounds, read-out: IC50 Pf (value in brackets) (converted)
[10] = compared with A. ptarmica crude extract
[11] = in vitro, means of two independent determinations ± deviation from mean, read-out: IC50 Tcr
[12] = in vitro, pure compounds, read-out: IC50 Tcr (value in brackets) (converted)
[13] = cytotoxicity, L6 cell line, means of two independent determinations ± deviation from mean, read-out: IC50 Tox. L6
[14] = cytotoxicity, L6 cell line, pure compounds, read-out: IC50 Tox. L6 (value in brackets) (converted)
[15] = Trypanosoma brucei, RHODESIENSE, in vitro, means of two independent determinations ± deviation from mean, read-out: IC50 Tbr
[16] = Trypanosoma brucei, RHODESIENSE, in vitro, pure compounds, read-out: IC50 Tbr (value in brackets) (converted)
[17] = in vitro, means of two independent determinations ± deviation from mean, read-out: IC50 Ldo
[18] = in vitro, pure compounds, read-out: IC50 Ldo (value in brackets) (converted)
[19] = NF54, read-out: IC50 Pf (value in brackets)
[20] = L6, read-out: IC50 Tox. L6 (value in brackets)

In the case of `CCCCC/C=C/C=C/C(=O)NCC(C)C` [Pellitorine (1), (E,E)-2,4-decadienoic acid isobutylamide], the “IC50 Pf” value ([1]; NF54 strain, means of two independent determinations ± deviation from mean) is reported as 3.3 µg/mL (≈ 14.8 µM), the IC50 ([1]; NF54, NF54 strain, means of two independent determinations ± deviation from mean, read-out: IC50 Pf) is reported as 3.26 µg/mL and the IC50 [1, 9] is reported as 14.6 µM. The “Antiplasmodial activity, fold higher than that of the crude extract” value [1, 10] was “about 2 fold”, the “SI Pf” value [1] was 13.85 and the “Concentration up to which reported inactive against Pf” value [2] was > 20 µg/mL. It also gave an IC50 [3, 11] of 8.45 ± 1.08 µg/mL, an IC50 [3, 12] of 37.9 µM and an IC50 [4, 13] of 45.5 ± 9.1 µg/mL. It also gave an IC50 [4, 14] of 202 µM, an IC50 [5, 15] of 5.35 ± 0.54 µg/mL and an IC50 [5, 16] of 24 µM. The “SI Tbr” value [5] was 8.41, the IC50 [6, 17] was 5.96 ± 0.16 µg/mL and the IC50 [6, 18] was 26.7 µM.
`CCN(CC)CCCC(C)Nc1ccnc2cc(Cl)ccc12` (centres unmarked) [Chloroquine, reference compound] showed an IC50 [1, 19] of 0.009 µM and an IC50 [7] of 0.25 µM.
Work on `Nc1nc(N)nc(Nc2ccc([As]3SCC(CO)S3)cc2)n1` (centres unmarked) [Melarsoprol, reference compound] yielded an IC50 ([5]; Trypanosoma brucei, RHODESIENSE, read-out: IC50 Tbr) of 0.003 ± 0.001 µg/mL and an IC50 ([5]; Trypanosoma brucei, RHODESIENSE, read-out: IC50 Tbr (value in brackets)) of 0.008 µM.
For `C/C=C\CC/C=C/C=C/C(=O)NCC(C)C` [8,9-Z-Dehydropellitorine (2), (E,E,Z)-2,4,8-decatrienoic acid isobutylamide], the IC50 [1, 9] was 29.3 µM, the “SI Pf” value [1] was 2.55 and the IC50 [3, 11] was 14.2 ± 2.5 µg/mL. The IC50 [3, 12] was 64.3 µM, the IC50 [4, 13] was 16.5 ± 0.2 µg/mL and the IC50 [4, 14] was 74.7 µM. For the same compound, the IC50 [5, 15] was 2 ± 0.06 µg/mL, the IC50 [5, 16] was 9 µM and the “Anti-Tbr activity, fold lower in comparison with the crude extract” value [5, 10] was 3 fold. The “Selectivity index (Tbr), fold lower than that of the total extract” value ([5]; compared with A. ptarmica total extract) was “about 5 fold”, the IC50 ([5]; in vitro, pure compounds, read-out: IC50 Tbr (value in brackets) (converted)) was 9.1 µM and the “SI Tbr” value [5] was 8.25. For the same compound, the IC50 [6, 17] was 5.01 ± 0.12 µg/mL and the IC50 [6, 18] was 22.7 µM.
For `CCCCCC=CC=CC(=O)NCC(C)C` [N-isobutyldeca-2,4-diene], the “IC50 against Pf” value [8] is given as 5.4 µg/mL (≈ 24.2 µM).
`COc1cc([C@@H]2c3cc4c(cc3[C@H](O)[C@H]3COC(=O)[C@H]23)OCO4)cc(OC)c1OC` [Podophyllotoxin, reference compound] gave an IC50 ([4]; L6, read-out: IC50 Tox. L6) of 0.008 ± 0.001 µg/mL and an IC50 [4, 20] of 0.019 µM.
Compound `O=C(Cn1ccnc1[N+](=O)[O-])NCc1ccccc1` [Benznidazole, reference compound] has an IC50 [3, 11] of 0.439 ± 0.094 µg/mL and an IC50 [3, 12] of 1.69 µM.
In the case of `CCCC#CC#CCC/C=C/C=C/C(=O)NCC(C)C` [Anacycline (6), (E,E)-2,4-tetradecadien-8,10-diynoic acid isobutylamide], the IC50 ([1]; NF54, read-out: IC50 Pf) is reported as 7.23 ± 0.4 µg/mL, the IC50 [1, 19] is reported as 26.7 µM and the “SI Pf” value [1] is reported as 6.74. The IC50 ([3]; read-out: IC50 Tcr) was 42 ± 4.5 µg/mL, the IC50 ([3]; read-out: IC50 Tcr (value in brackets)) was 155 µM and the IC50 ([4]; L6, read-out: IC50 Tox. L6) was 48.7 ± 1.1 µg/mL. It also gave an IC50 [4, 20] of 18 µM, an IC50 [5, 15] of 5.12 ± 0.95 µg/mL and an IC50 [5, 16] of 18.9 µM. For the same compound, the “SI Tbr” value [5] was 9.5, the IC50 ([6]; read-out: IC50 Ldo) was > 100 µg/mL and the IC50 ([6]; read-out: IC50 Ldo (value in brackets)) was > 369 µM.
